The record followed here is patent publication US20040224958A1, “Pyridopyrimidinone derivatives for treatment of neurodegenerative disease” (priority 2000, published 2004).

The target of one assay is Cdk5/p25 (Homo sapiens, UniProt Q00535). The experiment in a line: Cyclin-Dependent Kinase 5 High Throughput Screening (cdk5-HTS) Assay. The class given is biochemical. Particulars: high throughput screen. Put shortly: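 IC50 determined from 33P incorporation into GST-RbCOOH captured on glutathione plates and read by scintillation counting. Reaction: 1.0 μg/mL Cdk5/p25, 20 μM [γ33P]ATP, pH 7.4 Tris buffer with MgCl2 and DTT, 30 min at room temperature, stopped with EDTA.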

The target of the next assay is cdc2/cyclinB (Homo sapiens, UniProt P06493). The experiment in a line: Cyclin-Dependent Kinase Assay cdc2/cyclinB.
In a further assay the target is cdk2/cyclinA (Homo sapiens, UniProt P24941). The experiment in a line: Cyclin-Dependent Kinase Assay cdk2/cyclinA. The settings on record: cdk2/A IC50.
For the next assay, the target named is cdk2/cyclinE (Homo sapiens, UniProt P24941). Briefly: Cyclin-Dependent Kinase Assay cdk2/cyclinE. Particulars: cdk2/E IC50.
The target in another assay is cdk4/D (Homo sapiens, UniProt P11802). The experiment in a line: Cyclin-Dependent Kinase 4 (cdk4) Assay. The assay is classed as biochemical. Particulars: read-out: cdk4/D IC50.
Sequence of cdk4/D (P11802 whole entry): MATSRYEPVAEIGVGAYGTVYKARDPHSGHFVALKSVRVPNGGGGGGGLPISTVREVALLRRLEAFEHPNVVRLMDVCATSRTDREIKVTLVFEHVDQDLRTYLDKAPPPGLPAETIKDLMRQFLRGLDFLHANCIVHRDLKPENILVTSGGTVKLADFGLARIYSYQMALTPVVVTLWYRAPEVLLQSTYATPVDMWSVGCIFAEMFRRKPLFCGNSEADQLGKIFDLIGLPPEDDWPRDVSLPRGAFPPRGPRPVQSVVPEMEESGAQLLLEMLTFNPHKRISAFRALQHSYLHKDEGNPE
Sequence of cdk4/D (P24385 whole entry, further chain): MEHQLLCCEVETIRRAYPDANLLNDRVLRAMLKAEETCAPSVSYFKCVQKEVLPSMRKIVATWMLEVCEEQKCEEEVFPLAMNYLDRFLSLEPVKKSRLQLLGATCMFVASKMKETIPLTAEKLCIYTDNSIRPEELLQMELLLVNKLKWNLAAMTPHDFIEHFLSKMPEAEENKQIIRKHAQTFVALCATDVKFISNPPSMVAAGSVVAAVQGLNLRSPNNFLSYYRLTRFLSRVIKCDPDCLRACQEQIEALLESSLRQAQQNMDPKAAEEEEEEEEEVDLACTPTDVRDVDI

Sequence of cdc2/cyclinB (P06493 whole entry): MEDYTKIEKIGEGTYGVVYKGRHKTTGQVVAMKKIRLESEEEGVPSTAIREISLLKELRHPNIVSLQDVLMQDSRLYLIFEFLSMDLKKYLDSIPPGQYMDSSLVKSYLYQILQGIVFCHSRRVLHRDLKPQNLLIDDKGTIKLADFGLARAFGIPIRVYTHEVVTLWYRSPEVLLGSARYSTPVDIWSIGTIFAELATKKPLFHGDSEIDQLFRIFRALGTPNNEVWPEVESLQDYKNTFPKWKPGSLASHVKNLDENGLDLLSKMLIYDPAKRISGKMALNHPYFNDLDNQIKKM
Sequence of cdc2/cyclinB (P14635 whole entry, further chain): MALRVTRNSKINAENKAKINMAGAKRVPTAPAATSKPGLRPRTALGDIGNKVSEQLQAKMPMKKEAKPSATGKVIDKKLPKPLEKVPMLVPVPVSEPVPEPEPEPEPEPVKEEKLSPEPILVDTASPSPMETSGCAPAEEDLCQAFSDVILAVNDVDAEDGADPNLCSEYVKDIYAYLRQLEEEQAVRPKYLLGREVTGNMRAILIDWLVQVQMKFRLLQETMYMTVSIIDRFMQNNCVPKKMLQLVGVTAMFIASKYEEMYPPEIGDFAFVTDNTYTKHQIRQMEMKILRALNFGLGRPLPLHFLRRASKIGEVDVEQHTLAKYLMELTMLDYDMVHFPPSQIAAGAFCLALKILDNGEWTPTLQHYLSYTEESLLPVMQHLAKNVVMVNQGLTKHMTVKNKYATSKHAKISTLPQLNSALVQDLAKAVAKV

With `Cc1cc(Nc2ncc3ccc(=O)n(C(C)C)c3n2)ccc1F` [Example 408, 2-(4-Fluoro-3-methyl-phenylamino)-8-isopropyl-8H1-pyrido[2,3-d]pyrimidin-7-one], the IC50 against Cdk5/p25 was determined as 0.013 µM; against cdc2/cyclinB, 0.19 µM; against cdk2/cyclinA, 0.15 µM; against cdk2/cyclinE, 0.11 µM; on cdk4/D it was 0.13 µM.

Regarding `CC(C)n1c(=O)ccc2cnc(Nc3ccc4[nH]ccc4c3)nc21` [Example 409, 2-(1H-Indol-5-ylamino)-8-isopropyl-8H-pyrido[2,3-d]pyrimidin-7-one], the IC50 against Cdk5/p25 was 0.054 µM; against cdc2/cyclinB, 0.26 µM; against cdk2/cyclinA, 0.26 µM; on cdk2/cyclinE it was 0.0993 µM; on cdk4/D it was 0.044 µM.

With `CC(C)n1c(=O)ccc2cnc(Nc3ccc4[nH]nnc4c3)nc21` [Example 410, 2-(1H-Benzotriazol-5-ylamino)-8-isopropyl-8H-pyrido[2,3-d]pyrimidin-7-one], the IC50 came out at 0.0445 µM at Cdk5/p25; 0.245 µM against cdc2/cyclinB; 0.135 µM on cdk2/cyclinA; 0.088 µM on cdk2/cyclinE; 0.152 µM at cdk4/D.

Take `CC(C)n1c(=O)ccc2cnc(Nc3ccc(NC(=O)OC(C)(C)C)cc3)nc21` [Example 411, [4-(8-Isopropyl-7-oxo-7,8-dihydro-pyrido[2,3-d]pyrimidin-2-ylamino)-phenyl]-carbamic acid tert-butyl ester]: the IC50 on Cdk5/p25 is 0.177 µM; against cdc2/cyclinB it was 0.273 µM; on cdk2/cyclinA, 0.263 µM; against cdk2/cyclinE, 0.2 µM; on cdk4/D it was 0.18 µM.

With `CC(C)n1c(=O)ccc2cnc(Nc3cc(Cl)c(O)c(Cl)c3)nc21` [Example 412, 2-(3,5-Dichloro-4-hydroxy-phenylamino)-8-isopropyl-8H-pyrido[2,3-d]pyrimidin-7-one], the IC50 against Cdk5/p25 is 0.278 µM; against cdc2/cyclinB, 0.715 µM; at cdk2/cyclinA, 0.713 µM; against cdk2/cyclinE, 0.512 µM; on cdk4/D it was 2 µM.

`CC(C)n1c(=O)ccc2cnc(Nc3ccc(O)c(Cl)c3)nc21` [Example 413, 2-(3-Chloro-4-hydroxy-phenylamino)-8-isopropyl-8H-pyrido[2,3-d]pyrimidin-7-one]: the IC50 against Cdk5/p25 came out at 0.0435 µM; against cdc2/cyclinB, 0.068 µM; against cdk2/cyclinA, 0.139 µM; against cdk2/cyclinE, 0.0523 µM; at cdk4/D it was 0.18 µM.

As to `CC(=O)Nc1ccc(Nc2ncc3ccc(=O)n(C(C)C)c3n2)cc1` [Example 414, N-[4-(8-Isopropyl-7-oxo-7,8-dihydro-pyrido[2,3-d]pyrimidin-2-ylamino)-phenyl]-acetamide], the IC50 against Cdk5/p25 amounted to 0.0385 µM; at cdc2/cyclinB, 0.165 µM; against cdk2/cyclinA, 0.155 µM; on cdk2/cyclinE, 0.091 µM; at cdk4/D, 0.051 µM.

Turning to `CCCCn1c(=O)ccc2cnc(Nc3cc([N+](=O)[O-])ccc3F)nc21` [Example 415, 8-Butyl-2-(2-fluoro-5-nitro-phenylamino)-8H-pyrido[2,3-d]pyrimidin-7-one], the IC50 amounted to 0.29 µM at Cdk5/p25; 1.1 µM against cdc2/cyclinB; 1.1 µM against cdk2/cyclinA; 0.24 µM against cdk2/cyclinE; 0.49 µM at cdk4/D.

Regarding `COc1cc(Nc2ncc3ccc(=O)n(C(C)C)c3n2)cc(OC)c1OC` [Example 417, 8-Isopropyl-2-(3,4,5-trimethoxy-phenylamino)-8H-pyrido[2,3-d]pyrimidin-7-one], the IC50 against Cdk5/p25 was determined as 0.17 µM; at cdc2/cyclinB, 0.88 µM; at cdk2/cyclinA, 0.87 µM; at cdk2/cyclinE, 0.59 µM; on cdk4/D it was 3.4 µM.

`CC(C)n1c(=O)ccc2cnc(Nc3ccc(S(N)(=O)=O)cc3)nc21` [Example 418, 4-(8-Isopropyl-7-oxo-7,8-dihydro-pyrido[2,3-d]pyrimidin-2-ylamino)-benzenesulfonamide]: the IC50 on Cdk5/p25 was 0.015 µM; at cdc2/cyclinB, 0.09 µM; against cdk2/cyclinA, 0.033 µM; against cdk2/cyclinE, 0.027 µM; at cdk4/D, 0.13 µM.

For the molecule `CC(C)n1c(=O)ccc2cnc(Nc3ccc(Cl)c(C(F)(F)F)c3)nc21` [Example 421, 2-(4-Chloro-3-trifluoromethyl-phenylamino)-8-isopropyl-8H-pyrido[2,3-d]pyrimidin-7-one], the IC50 worked out at 0.083 µM against Cdk5/p25; 0.7 µM on cdc2/cyclinB; 0.92 µM against cdk2/cyclinA; 3.9 µM on cdk2/cyclinE; 1.9 µM at cdk4/D.

For `COc1ccc(Nc2ncc3ccc(=O)n(C(C)C)c3n2)cc1F` [Example 422, 2-(3-Fluoro-4-methoxy-phenylamino)-8-isopropyl-8H-pyrido[2,3-d]pyrimidin-7-one], the IC50 at Cdk5/p25 came out at 0.0097 µM; against cdc2/cyclinB it was 0.16 µM; against cdk2/cyclinA, 0.17 µM; on cdk2/cyclinE, 0.17 µM; at cdk4/D it was 0.066 µM.

For `CC(=O)Nc1cc(Nc2ncc3ccc(=O)n(C(C)C)c3n2)ccc1C#N` [Example 424, N-[2-Cyano-5-(8-isopropyl-7-oxo-7,8-dihydro-pyrido[2,3-d]pyrimidin-2-ylamino)-phenyl]-acetamide], the IC50 at Cdk5/p25 was found to be 0.039 µM; on cdc2/cyclinB, 0.52 µM; against cdk2/cyclinA, 0.46 µM; on cdk2/cyclinE, 0.36 µM; at cdk4/D it was 0.1 µM.

With `COc1cc(Nc2ncc3ccc(=O)n(C(C)C)c3n2)cc(C(F)(F)F)c1` [Example 425, 8-Isopropyl-2-(3-methoxy-5-trifluoromethyl-phenylamino)-8H-pyrido[2,3-d]pyrimidin-7-one], the IC50 was 0.18 µM on Cdk5/p25; 0.49 µM at cdc2/cyclinB; 1.8 µM at cdk2/cyclinA; 0.77 µM at cdk2/cyclinE; 0.85 µM at cdk4/D.

For `CC(C)n1c(=O)ccc2cnc(Nc3ccc(F)c(F)c3)nc21` [Example 426, 2-(3,4-Difluoro-phenylamino)-8-isopropyl-8H-pyrido[2,3-d]pyrimidin-7-one], the IC50 against Cdk5/p25 was 0.021 µM; against cdc2/cyclinB, 0.31 µM; against cdk2/cyclinA, 0.21 µM; at cdk2/cyclinE, 0.13 µM; on cdk4/D it was 0.058 µM.

Turning to `Cc1ccc(Nc2ncc3ccc(=O)n(C(C)C)c3n2)cc1I` [Example 427, 2-(3-Iodo-4-methyl-phenylamino)-8-isopropyl-8H-pyrido[2,3-d]pyrimidin-7-one], the IC50 on Cdk5/p25 is 0.021 µM; against cdc2/cyclinB, 0.16 µM; on cdk2/cyclinA, 0.59 µM; on cdk2/cyclinE, 0.16 µM; at cdk4/D, 0.14 µM.

For the molecule `CC(C)n1c(=O)ccc2cnc(Nc3cc(Cl)cc(Cl)c3)nc21` [Example 429, 2-(3,5-Dichloro-phenylamino)-8-isopropyl-8H-pyrido[2,3-d]pyrimidin-7-one], the IC50 at Cdk5/p25 worked out at 0.039 µM; at cdc2/cyclinB, 0.23 µM; against cdk2/cyclinA it was 0.86 µM; at cdk2/cyclinE it was 0.12 µM; on cdk4/D, 0.56 µM.

For the molecule `CC(C)n1c(=O)ccc2cnc(Nc3cccc(S(N)(=O)=O)c3)nc21` [Example 430, 3-(8-Isopropyl-7-oxo-7,8-dihydro-pyrido[2,3-d]pyrimidin-2-ylamino)-benzenesulfonamide], the IC50 against Cdk5/p25 is 0.015 µM; at cdc2/cyclinB, 0.18 µM; on cdk2/cyclinA it was 0.24 µM; against cdk2/cyclinE, 0.095 µM; at cdk4/D it was 0.035 µM.

For `CC(C)n1c(=O)ccc2cnc(Nc3ccc4c(c3)CCCC4=O)nc21` [Example 431, 8-Isopropyl-2-(5-oxo-5,6,7,8-tetrahydro-naphthalen-2-ylamino)-8H-pyrido[2,3-d]pyrimidin-7-one], the IC50 was 0.023 µM on Cdk5/p25; 0.17 µM at cdc2/cyclinB; 0.3 µM at cdk2/cyclinA; 0.12 µM at cdk2/cyclinE; 0.14 µM at cdk4/D.

In the case of `CC(=O)N(C)c1ccc(Nc2ncc3ccc(=O)n(C(C)C)c3n2)cc1` [Example 432, N-[4-(8-Isopropyl-7-oxo-7,8-dihydro-pyrido[2,3-d]pyrimidin-2-ylamino)-phenyl]-N-methyl-acetamide], the IC50 is 0.06 µM against Cdk5/p25; 0.54 µM against cdc2/cyclinB; 0.42 µM against cdk2/cyclinA; 0.39 µM against cdk2/cyclinE; 0.15 µM on cdk4/D.

Regarding `CC(C)n1c(=O)ccc2cnc(Nc3ccc(C#N)cc3)nc21` [Example 433, 4-(8-Isopropyl-7-oxo-7,8-dihydro-pyrido[2,3-d]pyrimidin-2-ylamino)-benzonitrile], the IC50 amounted to 0.076 µM against Cdk5/p25; 0.48 µM against cdc2/cyclinB; 0.16 µM against cdk2/cyclinA; 0.23 µM against cdk2/cyclinE; 0.25 µM at cdk4/D.

Take `Cc1ccc(Nc2ncc3ccc(=O)n(C(C)C)c3n2)cc1C` [Example 434, 2-(3,4-Dimethyl-phenylamino)-8-isopropyl-8H-pyrido[2,3-d]pyrimidin-7-one]: the IC50 against Cdk5/p25 worked out at 0.054 µM; against cdc2/cyclinB it was 0.47 µM; at cdk2/cyclinA, 0.4 µM; at cdk2/cyclinE, 0.52 µM; on cdk4/D, 0.35 µM.

Consider `CC(C)n1c(=O)ccc2cnc(Nc3ccc4cn[nH]c4c3)nc21` [Example 438, 2-(1H-Indazol-6-ylamino)-8-isopropyl-8H-pyrido[2,3-d]pyrimidin-7-one], for which the IC50 against Cdk5/p25 came to 0.215 µM; at cdc2/cyclinB it was 0.955 µM; at cdk2/cyclinA, 0.38 µM; against cdk2/cyclinE, 0.69 µM; on cdk4/D, 1.11 µM.
